Where “and” joins values, the source holds several entries; their conditions need not be identical. Equal values may be shown once.
Columns and labels:
Assay type in all cases: in vivo
[1] = test system: mice (RJ:NMRI, males); assay: Bright/dark box test (clear/dark transition test); details: for permanence time in the clear compartment (result in words): summary of Table 2 over the doses tested, i.p.
Procedure: This model, also known as clear/dark transition test, is characterized as a model of conflict, based on the natural tendency to explore new environments versus avoidance of doing so, due to the potential possibility of the presence of aversive stimuli. It is an animal model based on independent behavior of conditioning, therefore, there is no need of learning. In rodents, this model is grounded in their natural aversion to excessively clear environments. This aversion is measured from the ansiogenic component expressed by lower exposure of the animal to the clear compartment.
The method employed followed the procedure described by Crawley and Goodwin (Pharmacol. Biochem. Behav. 1981, 15, 695-699).
The animals were placed on the clear field of a box comprising two compartments, one being illuminate and open (25 x 27 x 27 cm) and the other being dark and close (20 x 27 x 27 cm). Data on the length of stay in each compartment were collected over the three-minute test.
This test aimed at obtaining a comparison profile of response of Compound (A) (3-(2-(-4-(2-methoxyphenyl)piperazin-1-yl)ethyl)quinazolin-4(3H)-one and Compound (B) 3-(2-(4-(2-cyanophenyl)piperazin-1-yl)ethyl)quinazolin-4(3H)-one with known compounds that act by different mechanisms. The comparative compounds were alprazolam (benzodiazepine), paroxetine (ISRS-type antidepressant), venlafaxine (IRSN-type antidepressant) and agomelatine (antidepressant that acts on melatonin and serotonin 5-HT2C receptor). The following doses were employed in this study: Table 1: Tested compounds, concentrations and route of administration.
In this blind study, ten mice (RJ:NMRI, males) were employed per group. Clobazam (12 mg/Kg, i.p. route) was administered under the same study conditions as the reference compound. All compounds were administered 30 minutes before the test.
The test data of the response of substances were analyzed comparing the groups treated with the control vehicle using one-way ANOVA followed by post-hoc analysis of Dunnett's test. The data of the reference substance obtained were analyzed using unpaired Student's t test.

[2] = test system: Mice; assay: Non-precipitated withdrawal test
Source text: This test aims at assessing how the sudden cessation of the administration of a medicine can be associated with the occurrence of withdrawal identifiable symptoms. The types of symptoms examined are feed changes, weight gain, body temperature and the occurrence of one or behavioral symptoms and others, such as tremor, teeth chattering, wet dog body-shaking, diarrhea or piloerection. The triggering of these signs is a first sign that the substance induces dependence after repeated administration.
The method employed followed the procedure described by Goudie and Leathley (Psychopharmacology 1991, 103: 529-537).
Two mice per cage received two administrations per day (approximately 10:00 hours and 16:00 hours) of the test substance continuously during 19 days (day 1 to day 19), with the last administration occurring next to 10:00 hours of the 20th day. Control animals received the same number of administrations of vehicle. […] During the discontinuation phase, all animals received administration of vehicle once a day.
Additionally to the observations made after discontinuing the medicines, the same measures were taken at day 1 and day 10 of treatment, in addition to the 3 last days (days 18 to 20) immediately prior to administration of the dose in the morning to assess the effects of medicines before discontinuation. After discontinuation, the first observation was performed 24 hours after the last administration and, from then on, every 24 hours (days 21 to 28).
For daily measurements, the animals were evaluated with respect to behavioral changes during 5 minutes (two animals simultaneously observed). Then, their body weights and rectal temperatures were measured. Then, they received the proper treatment and were returned to their cages.
The leftover food in their supporters was weighed immediately after all animals return to their cages (only in the mornings), and food consumption in the previous 24 hours was determined.
The body weights, feed consumption and rectal temperatures were also measured 24 hours before the first administration, as reference values. The treated groups were homogenized with regard to body weights on the day preceding the first administration of the tested substances.
Compound (A) (3-(2-(-4-(2-methoxyphenyl)piperazin-1-yl)ethyl)quinazolin-4 (3H)-one) was evaluated in 3 doses (3, 10 and 30 mg/kg) administered orally (p.o.) and compared to the vehicle (control group).
Chlordiazepoxide (64 mg/kg, p.o.) was administered under the same experimental conditions, and was employed as reference substance in the test.
Paroxetine (15 and 30 mg/kg p.o.) was administered under the same experimental conditions and was used as comparative substance.
The test was blinded. Data were analyzed by comparing substances with their control vehicles employing one-way ANOVA with the group as a factor followed by post-hoc Dunnett tests. Data with the reference substance were analyzed using unpaired Student's t test.

[3] = test system: Mice; assay: Sphere hiding test; details: for number of hidden spheres (result in words): summary of Table 4 over the doses tested
Procedure: This test is based on the natural aversive behavior to glass and marble of rodents, where the presence of these objects triggers the action of burying (hiding). In this test, there are potential behavioral changes of medicines that may promote an ansiogenic or anxiolytic profile. This is determined by the increase or decrease of the behavior of hiding glass spheres ("marbles") that are randomly distributed on the surface of a box lined with sawdust. The increase of the number of covered balls is an indicative of anxiety, since it is supposed to represent a foreign agent to the animal, whose presence may pose threat. The administration of anxiolytics medicines decreases the number of spheres buried in non-sedative doses.
The method employed followed the procedure described by Broekkamp et al. (Eur. J. Pharmacol., 1986, 126, 223-229).
Mice were individually placed in transparent plastic cages (33 x 21 x 18 cm), with the floor covered by a 5 cm layer of sawdust and 25 glass spheres grouped in the center of the cage. The cage was covered with a perforated plastic cover. Each test cage, along with the glass spheres, were previously impregnated with "mouse odor", and a group of 10 mice was left inside for 15 minutes.
The number of glass spheres covered with sawdust (2/3 or more of the surface) was counted at the end of the 30 minutes of the test.
Each study group consisted of 12 mice. The test was partially blind (substances tested versus vehicle of the tested substances).
This test aimed at obtaining a comparison profile of response of Compound (A) (3-(2-(-4-(2-methoxyphenyl)piperazin-1-yl) ethyl) quinazolin-4 (3H) -one and Compound (B) (3-(2-(4-(2-cyanophenyl)piperazin-1-yl)ethyl)quinazolin-4(3H)-one) with known compounds that act by different mechanisms. The comparative compounds used were alprazolam (benzodiazepine) and paroxetine (ISRS-type antidepressant). These compounds were tested in the following doses: Table 3: Compounds tested, concentrations employed and route of administration.
Fluoxetine (ISRI antidepressant) was used as the positive control substance in the test, and was administered at 32 mg/kg (i.p.).
Quantitative data for the tested substances (number of glass spheres coated with sawdust) were evaluated by comparison with the treated groups using one-way ANOVA followed by planned comparisons against the appropriate vehicles. Data with fluoxetine were compared to the vehicle control using unpaired Student's t test.

[4] = withdrawal phase, 64 mg/kg p.o.
[5] = 4 mg/Kg i.p., 30 minutes before the test
[6] = 4 mg/Kg i.p., 30 minutes before the test, three-minute test
[7] = 8 mg/Kg i.p., 30 minutes before the test
[8] = 8 mg/Kg i.p., 30 minutes before the test, three-minute test
[9] = 16 mg/Kg i.p., 30 minutes before the test
[10] = 16 mg/Kg i.p., 30 minutes before the test, three-minute test
[11] = dose given in Table 4 as (4), i.p.
[12] = dose given in Table 4 as (4), i.p., 25 glass spheres, counted at the end of 30 minutes
[13] = dose given in Table 4 as (8), i.p.
[14] = dose given in Table 4 as (8), i.p., 25 glass spheres, counted at the end of 30 minutes

## COc1ccc2cccc(CCNC(C)=O)c2c1 [Agomelatine, agomelatine]
[1]; 25 mg/Kg i.p., 30 minutes before the test
  Time spent in the clear compartment compared to vehicle %: -12%
[1]; 25 mg/Kg i.p., 30 minutes before the test, three-minute test
  Time spent in the clear compartment (seconds) (mean ± mean standard error): 64.7 ± 4.9 s
[1]; 50 mg/Kg i.p., 30 minutes before the test
  Time spent in the clear compartment compared to vehicle %: -4%
[1]; 50 mg/Kg i.p., 30 minutes before the test, three-minute test
  Time spent in the clear compartment (seconds) (mean ± mean standard error): 70.6 ± 8.5 s
[1]; 75 mg/Kg i.p., 30 minutes before the test
  Time spent in the clear compartment compared to vehicle %: -3%
[1]; 75 mg/Kg i.p., 30 minutes before the test, three-minute test
  Time spent in the clear compartment (seconds) (mean ± mean standard error): 71.3 ± 7.3 s

## Cc1nnc2n1-c1ccc(Cl)cc1C(c1ccccc1)=NC2 [Alprazolam, alprazolam]
[2]; mouse, in vivo
  amount of food consumed: significant reduction in the amount of food consumed on the first day of abstinence
  body weight, amount of food consumed and rectal temperature (the three studied parameters): showed no significant changes
[2]; mouse, in vivo, po
  withdrawal syndrome after an extended administration regimen: induces withdrawal syndrome
[1]; mouse, in vivo
  Time spent in the clear compartment (seconds) (mean ± mean standard error): 103.9 ± 11.5 s and 126.9 ± 10.1 s and 112.7 ± 15.5 s
[3]; mouse, in vivo
  Number of Hidden Spheres (mean ± mean standard error): 1,6 ± 1,4
  Number of Hidden Spheres Compared to vehicle control %: -92%

## CNC1=Nc2ccc(Cl)cc2C(c2ccccc2)=[N+]([O-])C1 [Chlordiazepoxide]
[2]; overall conclusion of the test, p.o., two administrations per day, day 1 to 20
  withdrawal syndrome after an extended administration regimen: induces a clear withdrawal syndrome
[2]; treatment phase, 64 mg/kg p.o.
  behavioral and psychological effects: ptosis, hyperactivity, jumps and dyspnoea
  body weight and amount of food consumed: did not induce significant changes
  rectal temperature: slight increase of rectal temperature
[2]; [4]
  behavioral and psychological effects: intensified the psychological behaviors and symptoms, mainly dyspnoea and hyperactivity, inducing occasional straub tail and teeth chattering
  body weight, amount of food consumed and rectal temperature: clear reduction in body weight and the amount of food consumed, and a significant increase of rectal temperature

## CN1C(=O)CC(=O)N(c2ccccc2)c2cc(Cl)ccc21 [Clobazam]
[1]; 12 mg/Kg i.p., 30 minutes before the test, reference compound
  Time spent in the clear compartment compared to vehicle %: +41%
[1]; 12 mg/Kg i.p., 30 minutes before the test, three-minute test, reference compound
  Time spent in the clear compartment (seconds) (mean ± mean standard error): 104.0 ± 5.2 s

## COc1ccccc1N1CCN(CCn2cnc3ccccc3c2=O)CC1 [Compound (A), 3-(2-(-4-(2-methoxyphenyl)piperazin-1-yl)ethyl)quinazolin-4(3H)-one]
[2]; mouse, in vivo, po
  withdrawal syndrome after an extended administration regimen: does not induce withdrawal syndrome
[1]; [5]
  Time spent in the clear compartment compared to vehicle %: +8%
[1]; [6]
  Time spent in the clear compartment (seconds) (mean ± mean standard error): 79.6 ± 15.4 s
[1]; [7]
  Time spent in the clear compartment compared to vehicle %: +111%
[1]; [8]
  Time spent in the clear compartment (seconds) (mean ± mean standard error): 155.1 ± 14.4 s
[1]; [9]
  Time spent in the clear compartment compared to vehicle %: +93%
[1]; [10]
  Time spent in the clear compartment (seconds) (mean ± mean standard error): 141.7 ± 13.4 s
[1]
  permanence time in the clear compartment (result in words): efficient in extending the permanence time in the clear compartment
[3]; [11]
  Number of Hidden Spheres Compared to vehicle control %: -82%
[3]; [12]
  Number of Hidden Spheres (mean ± mean standard error): 3.5 ± 2.4
[3]; [13]
  Number of Hidden Spheres Compared to vehicle control %: -98%
[3]; [14]
  Number of Hidden Spheres (mean ± mean standard error): 0.3 ± 0.3
[3]; i.p.
  number of hidden spheres (result in words): significantly reduced the number of hidden spheres

## N#Cc1ccccc1N1CCN(CCn2cnc3ccccc3c2=O)CC1 [Compound (B), 3-(2-(4-(2-cyanophenyl)piperazin-1-yl)ethyl)quinazolin-4(3H)-one]
[1]; [5]
  Time spent in the clear compartment compared to vehicle %: +37%
[1]; [6]
  Time spent in the clear compartment (seconds) (mean ± mean standard error): 100.9 ± 15.2 s
[1]; [7]
  Time spent in the clear compartment compared to vehicle %: +40%
[1]; [8]
  Time spent in the clear compartment (seconds) (mean ± mean standard error): 103.0 ± 11.5 s
[1]; [9]
  Time spent in the clear compartment compared to vehicle %: +103%
[1]; [10]
  Time spent in the clear compartment (seconds) (mean ± mean standard error): 149.3 ± 11.0 s
[1]
  permanence time in the clear compartment (result in words): efficient in extending the permanence time in the clear compartment
[3]; [11]
  Number of Hidden Spheres Compared to vehicle control %: -42%
[3]; [12]
  Number of Hidden Spheres (mean ± mean standard error): 11.0 ± 3.3
[3]; [13]
  Number of Hidden Spheres Compared to vehicle control %: -89%
[3]; [14]
  Number of Hidden Spheres (mean ± mean standard error): 2.1 ± 2.1
[3]; i.p.
  number of hidden spheres (result in words): significantly reduced the number of hidden spheres

## CNCCC(Oc1ccc(C(F)(F)F)cc1)c1ccccc1 (centres unmarked) [Fluoxetine]
[3]; 32 mg/kg i.p., positive control
  Number of Hidden Spheres Compared to vehicle control %: -74%
[3]; 32 mg/kg i.p., positive control, 25 glass spheres, counted at the end of 30 minutes
  Number of Hidden Spheres (mean ± mean standard error): 4.9 ± 2.0

## COc1ccc(C(CN(C)C)C2(O)CCCCC2)cc1 (centres unmarked) [Venlafaxine, venlafaxine]
[1]; [7]
  Time spent in the clear compartment compared to vehicle %: -2%
[1]; [8]
  Time spent in the clear compartment (seconds) (mean ± mean standard error): 72.3 ± 7.3 s
[1]; [9]
  Time spent in the clear compartment compared to vehicle %: -12%
[1]; [10]
  Time spent in the clear compartment (seconds) (mean ± mean standard error): 65.1 ± 6.0 s
[1]; 32 mg/Kg i.p., 30 minutes before the test
  Time spent in the clear compartment compared to vehicle %: +7%
[1]; 32 mg/Kg i.p., 30 minutes before the test, three-minute test
  Time spent in the clear compartment (seconds) (mean ± mean standard error): 78.9 ± 4.9 s

Reference: patent publication EP3130339A1, “A COMPOUND FOR USE IN THE TREATMENT OF COMORBID ANXIETY DISORDER AND DEPRESSION DISORDER” (Aché Laboratórios Farmacêuticos S.A., priority 2015, dated 2017)
